From patent publication US20260201008A1, “SECRETIN-DERIVED GLP1R SELECTIVE AGONISTS” (GUBRA A/S, priority 2023, published 2026)
Like-named read-outs stand apart in the source and are kept apart here. Numbered stars: 1 amine (or outer) side, 2 acyl side, 3 side chain; on linkers, the order of the positions; unused ones are H or OH. Square brackets hold non-standard residues; d marks the D form. Side chains are listed from the residue outwards. Peptide text beside a SMILES is read from it. * marks the point of attachment. C20 diacid = O=C(O)CCCCCCCCCCCCCCCCCCC(=O)*; γGlu = O=C(O)[C@H](CCC(=O)[*:2])N[*:1]; AEEA = NCCOCCOCC(=O)O; Aib = CC(C)(N)C(=O)O

Experiments:
[1] = Turbidity of crude library peptides (absorbance at 600 nm); assay type: physicochemical; conditions: Physical stability of peptides
Experimental: (§1) Peptides were dissolved in buffers (50 mM sodium acetate at pH 4.0, or 50 mM sodium phosphate at pH 7.0) to 267 μM and incubated for 1-2 hours at room temperature. The samples were then divided into two replicates of 80 μl in a black 384 well plate (μ-clear, Greiner Bio-One) and mixed with Thioflavin T (ThT) to a final concentration of 4 μM. The plate was centrifuged for 2 min at 2000 rpm to remove air bubbles, sealed, and placed in a plate reader (CLARIOstar, BMG). Firstly, turbidity of the samples was measured as the absorbance at 600 nm. Secondly, the plate reader temperature was set to 40° C. and the fluorescence was measured every 10 min for 72 hours by exciting the ThT at 450 nm and measuring the emission at 480 nm. Samples were stressed by shaking the plate at 700 rpm (linear) for five minutes before every measurement, and fibril formation was determined as the average emission for each sample.

GLP1R = GLP1R (Homo sapiens, UniProt P43220); assay: hGLP1R potency, cAMP accumulation in CHO-K1 cells stably overexpressing hGLP1R; assay type: cell-based; set-up: host or cells: CHO-K1; conditions: for Selectivity: SCTR EC50/GLP1R EC50 ratio; for EC50: cAMP accumulation, CHO-K1 cells overexpressing hGLP1R; for SCTR EC50/GLP1R EC50 ratio: selectivity for hGLP1R over hSCTR, cAMP accumulation in CHO-K1 cells
Sequence of GLP1R (P43220 24-463): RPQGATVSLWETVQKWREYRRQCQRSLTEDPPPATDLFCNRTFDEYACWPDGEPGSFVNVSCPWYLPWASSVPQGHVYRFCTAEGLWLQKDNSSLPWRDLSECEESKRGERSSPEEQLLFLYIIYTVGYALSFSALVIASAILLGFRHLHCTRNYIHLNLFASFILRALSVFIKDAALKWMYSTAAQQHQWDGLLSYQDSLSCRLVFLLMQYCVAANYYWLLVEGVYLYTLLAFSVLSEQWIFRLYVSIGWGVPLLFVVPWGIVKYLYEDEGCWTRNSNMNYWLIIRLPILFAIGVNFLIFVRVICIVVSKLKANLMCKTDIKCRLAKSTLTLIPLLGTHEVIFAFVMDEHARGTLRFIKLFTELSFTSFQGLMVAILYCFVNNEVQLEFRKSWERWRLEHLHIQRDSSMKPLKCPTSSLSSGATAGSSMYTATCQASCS
Procedure, shortened: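 TR-FRET cAMP read-out, one hour after reagent addition, following 30 min compound exposure at RT in DPBS/0.05% casein/0.5 mM IBMX. Crude peptides: 5 points, 10-fold steps, n=1. Purified peptides: 11 points, 3-fold steps, n=2. EC50 fitted with a variable-slope sigmoid.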

[2] = Fibril formation of crude library peptides (Thioflavin T); assay type: physicochemical; set-up: key: average ThT fluorescence emission at 480 nm (ex 450 nm), raw units; conditions: Physical stability of peptides
Experimental: as §1

SCTR = SCTR (Homo sapiens, UniProt P47872); assay: hSCTR potency, cAMP accumulation in CHO-K1 cells stably overexpressing hSCTR; assay type: cell-based; set-up: alternatively Euroscreen ES-712-AF; FAST-0161L; host or cells: CHO-K1; conditions: cAMP accumulation, CHO-K1 cells overexpressing hSCTR
Sequence of SCTR (P47872 23-440): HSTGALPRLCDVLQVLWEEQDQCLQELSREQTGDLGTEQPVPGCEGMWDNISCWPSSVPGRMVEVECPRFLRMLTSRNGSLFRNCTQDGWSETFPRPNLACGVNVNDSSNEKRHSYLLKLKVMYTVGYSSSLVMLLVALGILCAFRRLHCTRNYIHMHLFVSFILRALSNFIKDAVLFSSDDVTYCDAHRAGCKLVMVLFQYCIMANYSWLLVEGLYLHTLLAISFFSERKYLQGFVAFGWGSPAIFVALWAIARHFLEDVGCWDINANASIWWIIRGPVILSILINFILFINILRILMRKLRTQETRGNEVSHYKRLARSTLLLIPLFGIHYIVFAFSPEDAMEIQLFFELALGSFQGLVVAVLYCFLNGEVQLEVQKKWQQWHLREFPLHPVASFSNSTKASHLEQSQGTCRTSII
Procedure, shortened: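 CHO-K1/hSCTR cells; DPBS + 0.05% casein + 0.5 mM IBMX; 30 min RT stimulation; cAMP by TR-FRET read at 1 h. Crude peptides: 5-point 10-fold dilutions, n=1. Purified: 11-point 3-fold dilutions, n=2. EC50 via variable-slope fit.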

[3] = read-out: pEC50 hGLPR1 (converted)
[4] = read-out: pEC50 hSCTR (converted)
[5] = read-out: hGLP1R pEC50 (converted)
[6] = read-out: hSCTR pEC50 (converted)

Turbidity (pH 7) [1]	Selectivity (GLP1R)	EC50 (GLP1R; [3])	Fibril formation [2]	EC50 (SCTR; [4])	EC50 (GLP1R; [5])	SCTR EC50/GLP1R EC50 ratio (GLP1R)	EC50 (SCTR; [6])	SMILES
0.08	18582	0.0251 nM	11365	398 nM	–	–	–	CC(C)C[C@H](NC(=O)[C@H](Cc1ccccc1)NC(=O)[C@H](CCCNC(=N)N)NC(=O)[C@H](CCC(N)=O)NC(=O)[C@H](CCC(=O)O)NC(=O)[C@H](C)NC(=O)[C@H](C)NC(=O)[C@@H](NC(=O)[C@H](CCC(=O)O)NC(=O)[C@H](CCCCNC(=O)COCCOCCNC(=O)COCCOCCNC(=O)CC[C@H](NC(=O)CCCCCCCCCCCCCCCCCCC(=O)O)C(=O)O)NC(=O)[C@H](CC(C)C)NC(=O)[C@H](CCCNC(=N)N)NC(=O)[C@H](CO)NC(=O)[C@@H](NC(=O)[C@H](CC(=O)O)NC(=O)[C@H](CO)NC(=O)[C@@H](NC(=O)[C@H](Cc1ccccc1)NC(=O)[C@@H](NC(=O)CNC(=O)[C@H](CCC(=O)O)NC(=O)C(C)(C)NC(=O)[C@@H](N)Cc1c[nH]cn1)[C@@H](C)O)[C@@H](C)O)C(C)C)[C@@H](C)O)C(=O)N[C@@H](CCC(=O)O)C(=O)N[C@@H](Cc1c[nH]cn1)C(=O)N[C@@H](CC(C)C)C(=O)N[C@H](C(N)=O)C(C)C [compound 34] (H-H[Aib]EGTFTSDVSRLK([AEEA-AEEA-γGlu-C20 diacid])ETAAEQRFLEHLV-NH2)
0.08	114525	0.0316 nM	10742	3980 nM	–	–	–	CC(C)C[C@H](NC(=O)[C@H](Cc1ccccc1)NC(=O)[C@H](CCCNC(=N)N)NC(=O)[C@H](CCC(N)=O)NC(=O)[C@H](C)NC(=O)[C@H](C)NC(=O)[C@H](C)NC(=O)[C@@H](NC(=O)[C@H](CCC(=O)O)NC(=O)[C@H](CCCCNC(=O)COCCOCCNC(=O)COCCOCCNC(=O)CC[C@H](NC(=O)CCCCCCCCCCCCCCCCCCC(=O)O)C(=O)O)NC(=O)[C@H](CC(C)C)NC(=O)[C@H](Cc1ccccc1)NC(=O)[C@H](CO)NC(=O)[C@@H](NC(=O)[C@H](CC(=O)O)NC(=O)[C@H](CO)NC(=O)[C@@H](NC(=O)[C@H](Cc1ccccc1)NC(=O)[C@@H](NC(=O)CNC(=O)[C@H](CCC(=O)O)NC(=O)C(C)(C)NC(=O)[C@@H](N)Cc1c[nH]cn1)[C@@H](C)O)[C@@H](C)O)C(C)C)[C@@H](C)O)C(=O)N[C@@H](CCC(=O)O)C(=O)N[C@@H](Cc1c[nH]cn1)C(=O)N[C@@H](CC(C)C)C(=O)N[C@H](C(N)=O)C(C)C [compound 44] (H-H[Aib]EGTFTSDVSFLK([AEEA-AEEA-γGlu-C20 diacid])ETAAAQRFLEHLV-NH2)
0.09	11020	0.0126 nM	7756	126 nM	–	–	–	CC(C)C[C@H](NC(=O)[C@H](Cc1ccccc1)NC(=O)[C@H](CCCNC(=N)N)NC(=O)[C@H](CCC(N)=O)NC(=O)[C@@H](NC(=O)[C@H](C)NC(=O)[C@H](C)NC(=O)[C@@H](NC(=O)[C@H](CCC(=O)O)NC(=O)[C@H](CCCCNC(=O)COCCOCCNC(=O)COCCOCCNC(=O)CC[C@H](NC(=O)CCCCCCCCCCCCCCCCCCC(=O)O)C(=O)O)NC(=O)[C@H](CC(C)C)NC(=O)[C@H](CCC(=O)O)NC(=O)[C@H](CO)NC(=O)[C@@H](NC(=O)[C@H](CC(=O)O)NC(=O)[C@H](CO)NC(=O)[C@@H](NC(=O)[C@H](Cc1ccccc1)NC(=O)[C@@H](NC(=O)CNC(=O)[C@H](CCC(=O)O)NC(=O)C(C)(C)NC(=O)[C@@H](N)Cc1c[nH]cn1)[C@@H](C)O)[C@@H](C)O)C(C)C)[C@@H](C)O)[C@@H](C)O)C(=O)N[C@@H](CCC(=O)O)C(=O)N[C@@H](Cc1c[nH]cn1)C(=O)N[C@@H](CC(C)C)C(=O)N[C@H](C(N)=O)C(C)C [compound 54] (H-H[Aib]EGTFTSDVSELK([AEEA-AEEA-γGlu-C20 diacid])ETAATQRFLEHLV-NH2)
0.08	–	–	4038	–	0.00631 nM	1693	10 nM	CC(C)C[C@H](NC(=O)[C@H](Cc1ccccc1)NC(=O)[C@H](CCCNC(=N)N)NC(=O)[C@H](CCC(N)=O)NC(=O)[C@H](CC(C)C)NC(=O)C(C)(C)NC(=O)[C@H](C)NC(=O)[C@H](CCC(=O)O)NC(=O)[C@H](CCC(=O)O)NC(=O)[C@H](CCCCNC(=O)COCCOCCNC(=O)COCCOCCNC(=O)CC[C@H](NC(=O)CCCCCCCCCCCCCCCCCCC(=O)O)C(=O)O)NC(=O)[C@H](CC(C)C)NC(=O)[C@@H](NC(=O)[C@H](CO)NC(=O)[C@@H](NC(=O)[C@H](CC(=O)O)NC(=O)[C@H](CO)NC(=O)[C@@H](NC(=O)[C@H](Cc1ccccc1)NC(=O)[C@@H](NC(=O)CNC(=O)[C@H](CCC(=O)O)NC(=O)C(C)(C)NC(=O)[C@@H](N)Cc1c[nH]cn1)[C@@H](C)O)[C@@H](C)O)C(C)C)[C@@H](C)O)C(=O)N[C@@H](CCC(=O)O)C(=O)N[C@@H](Cc1c[nH]cn1)C(=O)N[C@@H](CC(C)C)C(=O)N[C@H](C(N)=O)C(C)C [compound 165] (H-H[Aib]EGTFTSDVSTLK([AEEA-AEEA-γGlu-C20 diacid])EEA[Aib]LQRFLEHLV-NH2)
0.08	–	–	4181	–	0.0316 nM	34990	1000 nM	CC(C)C[C@H](NC(=O)[C@H](Cc1ccccc1)NC(=O)[C@H](CCCNC(=N)N)NC(=O)[C@H](CCC(N)=O)NC(=O)[C@H](CC(C)C)NC(=O)C(C)(C)NC(=O)[C@H](C)NC(=O)[C@H](CCC(=O)O)NC(=O)[C@H](CCC(=O)O)NC(=O)[C@H](Cc1c[nH]c2ccccc12)NC(=O)[C@H](CC(C)C)NC(=O)[C@H](Cc1ccc(O)cc1)NC(=O)[C@H](CO)NC(=O)[C@@H](NC(=O)[C@H](CC(=O)O)NC(=O)[C@H](CO)NC(=O)[C@@H](NC(=O)[C@H](Cc1ccccc1)NC(=O)[C@@H](NC(=O)CNC(=O)[C@H](CCC(=O)O)NC(=O)C(C)(C)NC(=O)[C@@H](N)Cc1c[nH]cn1)[C@@H](C)O)[C@@H](C)O)C(C)C)C(=O)N[C@@H](CCC(=O)O)C(=O)N[C@@H](CCCCNC(=O)COCCOCCNC(=O)COCCOCCNC(=O)CC[C@H](NC(=O)CCCCCCCCCCCCCCCCCCC(=O)O)C(=O)O)C(=O)N[C@@H](CC(C)C)C(=O)N[C@H](C(N)=O)C(C)C [compound 130] (H-H[Aib]EGTFTSDVSYLWEEA[Aib]LQRFLEK([AEEA-AEEA-γGlu-C20 diacid])LV-NH2)
0.08	5429	0.02 nM	11371	126 nM	–	–	–	CC(C)C[C@H](NC(=O)[C@H](Cc1ccccc1)NC(=O)[C@H](CCCNC(=N)N)NC(=O)[C@H](CCC(N)=O)NC(=O)[C@@H](NC(=O)[C@H](C)NC(=O)[C@H](C)NC(=O)C(C)(C)NC(=O)[C@H](CCC(=O)O)NC(=O)[C@H](CCCCNC(=O)COCCOCCNC(=O)COCCOCCNC(=O)CC[C@H](NC(=O)CCCCCCCCCCCCCCCCCCC(=O)O)C(=O)O)NC(=O)[C@H](CC(C)C)NC(=O)[C@@H](NC(=O)[C@H](CO)NC(=O)[C@@H](NC(=O)[C@H](CC(=O)O)NC(=O)[C@H](CO)NC(=O)[C@@H](NC(=O)[C@H](Cc1ccccc1)NC(=O)[C@@H](NC(=O)CNC(=O)[C@H](CCC(=O)O)NC(=O)C(C)(C)NC(=O)[C@@H](N)Cc1c[nH]cn1)[C@@H](C)O)[C@@H](C)O)C(C)C)C(C)C)[C@@H](C)O)C(=O)N[C@@H](CCC(=O)O)C(=O)N[C@@H](Cc1c[nH]cn1)C(=O)N[C@@H](CC(C)C)C(=O)N[C@H](C(N)=O)C(C)C [compound 49] (H-H[Aib]EGTFTSDVSVLK([AEEA-AEEA-γGlu-C20 diacid])E[Aib]AATQRFLEHLV-NH2)
